This passage reports IC50 results from patent US12023333B2, “Phenyl-sulfamoyl.benzoyc acids as ERAP1 modulators” (GREY WOLF THERAPEUTICS LIMITED, priority 2019, dated 2024).

Molecules are shown by their SMILES. Some results are limits rather than exact numbers.

For the assay, the target named is T1, Purified ERAP1(37-941)-10His (ERAP1) (Homo sapiens, UniProt Q9NZ08).
T1 construct: Purified ERAP1(37-941)-10His (ERAP1); 10His (C)
The experiment in a line: ERAP1 mediated hydrolysis of an amide substrate measured in a biochemical system (10-mer decapeptide substrate). Particulars: 10-mer substrate, 23° C. for 1 h, excitation 279 nm and emission 355 nm; read-out: IC50 vs Decapeptide WRVYEKC(Dnp)ALK-acid (where Dnp is Dinitrophenyl maleimide) (10-mer). In outline: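 ERAP1(37-941)-10His preincubated with compound in 25 mM Bis-tris propane, 0.05% HPMC, pH 7.75, then reacted 1 h at 23 °C with 10-mer WRVYEKC(Dnp)ALK (100 μM solution added in equal volume). Fluorescence read at ex 279/em 355 nm; IC50 from 4-parameter fit.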

T1 sequence (Q9NZ08 37-941): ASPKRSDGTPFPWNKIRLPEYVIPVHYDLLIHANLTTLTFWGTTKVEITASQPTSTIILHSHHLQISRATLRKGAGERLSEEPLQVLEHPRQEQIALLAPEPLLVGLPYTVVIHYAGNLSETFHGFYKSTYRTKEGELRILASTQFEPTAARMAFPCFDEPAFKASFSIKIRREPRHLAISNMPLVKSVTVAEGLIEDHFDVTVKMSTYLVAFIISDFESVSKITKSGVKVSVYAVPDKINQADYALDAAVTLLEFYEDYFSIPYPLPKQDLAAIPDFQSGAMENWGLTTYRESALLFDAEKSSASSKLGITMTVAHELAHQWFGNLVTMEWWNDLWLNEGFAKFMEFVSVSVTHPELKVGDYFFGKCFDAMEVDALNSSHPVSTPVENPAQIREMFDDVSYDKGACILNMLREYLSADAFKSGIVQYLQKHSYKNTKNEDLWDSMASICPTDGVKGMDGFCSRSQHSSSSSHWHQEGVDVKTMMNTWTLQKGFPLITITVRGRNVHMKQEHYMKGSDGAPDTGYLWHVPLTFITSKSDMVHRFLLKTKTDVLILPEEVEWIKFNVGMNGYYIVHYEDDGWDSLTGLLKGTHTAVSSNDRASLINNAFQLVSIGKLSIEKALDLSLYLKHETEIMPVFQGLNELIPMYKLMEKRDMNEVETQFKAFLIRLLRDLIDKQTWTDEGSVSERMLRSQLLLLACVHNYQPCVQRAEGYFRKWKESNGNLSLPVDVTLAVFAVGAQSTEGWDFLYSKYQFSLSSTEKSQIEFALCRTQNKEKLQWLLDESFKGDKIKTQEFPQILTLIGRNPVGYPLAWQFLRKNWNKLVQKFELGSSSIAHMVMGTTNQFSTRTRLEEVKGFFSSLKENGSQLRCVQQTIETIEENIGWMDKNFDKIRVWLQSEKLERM

With `Cc1oncc1-c1cc(NS(=O)(=O)c2cc(C(=O)O)ccc2C2CC2)c(-n2cccc2)cc1F` [Example 202, 4-cyclopropyl-3-(N-(4-fluoro-5-(5-methylisoxazol-4-yl)-2-(pyrrol-1-yl)phenyl)sulfamoyl)benzoic acid], the IC50 was under 500 nM.
Take `O=C(O)c1ccc(C2CC2)c(S(=O)(=O)Nc2cc(-c3ccns3)c(Cl)cc2-n2cccc2)c1` [Example 203, 3-(N-(4-chloro-5-(isothiazol-5-yl)-2-(pyrrol-1-yl)phenyl)sulfamoyl)-4-cyclopropylbenzoic acid]: the IC50 was under 500 nM.
With `Cn1ncnc1-c1cc(NS(=O)(=O)c2cc(C(=O)O)ccc2C2CC2)c(-n2cccc2)cc1Cl` [Example 204, 3-(N-(4-chloro-5-(1-methyl-1,2,4-triazol-5-yl)-2-(pyrrol-1-yl)phenyl)sulfamoyl)-4-cyclopropylbenzoic acid], the IC50 was under 500 nM.
Regarding `Cc1oncc1-c1cc(NS(=O)(=O)c2cc(C(=O)O)ccc2C2CC2)c(-n2cccc2)cc1Cl` [Example 205, 3-(N-(4-chloro-5-(5-methylisoxazol-4-yl)-2-(pyrrol-1-yl)phenyl)sulfamoyl)-4-cyclopropylbenzoic acid], the IC50 was under 500 nM.
In the case of `O=C(O)c1ccc(C2CC2)c(S(=O)(=O)Nc2cc(-n3cnnn3)c(Cl)cc2-n2cccc2)c1` [Example 206, 3-(N-(4-chloro-2-(pyrrol-1-yl)-5-(tetrazol-1-yl)phenyl)sulfamoyl)-4-cyclopropylbenzoic acid], the IC50 is under 500 nM.
Take `O=C(O)c1ccc(C2CC2)c(S(=O)(=O)Nc2cc(-n3cnnn3)c(F)cc2-n2cccc2)c1` [Example 207, 4-cyclopropyl-3-(N-(4-fluoro-2-(pyrrol-1-yl)-5-(tetrazol-1-yl)phenyl)sulfamoyl)benzoic acid]: the IC50 was under 500 nM.
Regarding `O=C(O)c1ccc(C2CC2)c(S(=O)(=O)Nc2cc(-n3cnnn3)ccc2-n2cccc2)c1` [Example 208, 3-(N-(2-(pyrrol-1-yl)-5-(tetrazol-1-yl)phenyl)sulfamoyl)-4-cyclopropylbenzoic acid], the IC50 is under 500 nM.

The term IC50 denotes the concentration at which inhibition is half-maximal.
